Measured values: patent US20140357512A1, “HISTONE DEACETYLASE (HDAC) BIOMARKERS IN MULTIPLE MYELOMA” (priority 2013, published 2014)

System: human myeloma cell line MM.1S
Experiment: SILAC acetylated-lysine peptide profiling, HDAC inhibitor vs DMSO (light/heavy ratio)
Format: cell-based
Description: An embodiment of the invention comprises utilizing the SILAC method in order to quantitate changes in protein expression between two or more populations of cells. The SILAC method is a technique based on mass spectrometry that detects differences in protein abundance among samples using non-radioactive isotopic labeling. The SILAC method is known in the art, and described in detail in Ong et al., “Stable Isotope Labeling by Amino Acids in Cell Culture, SILAC, as a Simple and Accurate Approach to Expression Proteomics”, Molecular & Cellular Proteomics, vol. 1, pp. 376-386 (2002), which is incorporated herein by reference in its entirety.
Briefly, the SILAC method involves growing two populations of cells in cell culture. The first population of cells is grown in growth media containing normal amino acids (“normal media”). The second population of cells is grown in media lacking a standard essential amino acid (such as lysine), but is then supplemented with a non-radioactive, isotopically labeled form of that essential amino acid (such as lysine labeled with ^13C atoms, rather than normal ^12C atoms), which is called “heavy media”. When the two populations of cells are each growing in the medium, they incorporate the amino acids into all of their proteins. The growth of cells maintained in the heavy media is no different from that in normal media. All peptides containing the heavy amino acids are heavier than their normal counterparts. The cells from each of the two populations of cells are lysed. The lysates from each of the two cell populations are then combined. The combined cell lysates are then analyzed by mass spectrometry. Pairs of chemically identical peptides of different stable isotope composition can be differentiated in a mass spectrometer due to their difference in mass. The ratio of peak intensities in the mass spectrum for such peptide pairs reflects the abundance ratio for the two proteins.
This example describes SILAC studies that were performed to compare the effects of three different HDAC inhibitors (Compound A, Compound B, and tubastatin A) to a control on a human multiple myeloma cell line. The HDAC inhibitors were also compared amongst themselves to determine differences in their effects.
A human myeloma cell line MM.1S was grown using either ^12C (light) or ^13C (heavy) lysine containing culture medium. The “heavy” cells were treated with DMSO as the control, and the “light” cells were treated with a single HDAC inhibitor at 37° C. for 6 hours. The heavy and light cells were lysed, and the lysates were mixed in 1:1 ratio and digested with the protease trypsin. The acetylated lysine containing peptides (due to the action of the HDAC inhibitor) in the digested peptide pool were captured by a non-specific anti-acetylated lysine antibody cocktail (the antibodies identify both light and heavy acetylated peptides), and subjected to mass spectrometry analysis in order to identify thousands of individual peptides.
Thousands of peptides were identified in pairs (^12C and ^13C) due to their known mass differences. The amino acid sequence and quantitative ratio (Light/Heavy) of a given peptide in two differentially treated cell lysates were then determined and annotated with their possible protein (gene) sources.
As stated above, three HDAC inhibitors (Compound A, Compound B, and Tubastatin A) were used. Thus, the SILAC method was performed three times, with a different HDAC inhibitor compared to a control each time. Accordingly, there are three pairs of quantitative data in the table below, i.e., Compound A:DMSO, Compound B:DMSO, and Tubastatin A:DMSO. A cut-off of 1.30 fold of change (increase or decrease) was then used to determine “changed” or “+” in the table, and any peptides with a fold of change less than 1.3 fold were determined to be “unchanged” or “0” in the table. Those peptides that were not identified were marked as “NA” in the table. […]

## O=C(CCCCCCNC(=O)c1cnc(N(c2ccccc2)c2ccccc2)nc1)NO [Compound A, 2-(diphenylamino)-N-(7-(hydroxyamino)-7-oxoheptyl)pyrimidine-5-carboxamide]
DDX5 [388], log 2 scale, drug vs DMSO
  L/H ratio of acetylated peptide DWVLNEFK(ac)HGK (SEQ ID NO: 33): 0.00
DDX17 [132], log 2 scale, drug vs DMSO
  L/H ratio of acetylated peptide FEK(ac)[…] (SEQ ID NO: 32): 0.00
DLAT [466], log 2 scale, drug vs DMSO
  L/H ratio of acetylated peptide ELNK(ac)ILEGR (SEQ ID NO: 2): 0.00
DNA replication licensing factor MCM2 [534], gene MCM2, inhibitor:DMSO
  light to heavy ratio (L/H ratio) of acetylated peptide SQFLK(ac)YIEK (SEQ ID NO: 524): −0.46 log 2
DNA topoisomerase 1 [642], TOP1, drug:DMSO
  light to heavy ratio (L/H ratio) of acetylated peptide TFEK(ac)SMMNLQTK (SEQ ID NO: 354): 0.00 log 2
DNAJB11 [247], log 2 scale, drug vs DMSO
  L/H ratio of acetylated peptide VVK(ac)HPIFER (SEQ ID NO: 35): 0.00
DVTLQK(ac)QCVPFR (SEQ ID NO: 486), 60S ribosomal protein L17 [55], RPL17
  L/H ratio of acetylated peptide: 0.71 log 2
Dihydrolipoyl dehydrogenase mitochondrial [122], gene DLD, inhibitor:DMSO
  light to heavy ratio (L/H ratio) of acetylated peptide LNLDK(ac)MMEQK (SEQ ID NO: 603): 0.46 log 2
Dolichyl-diphosphooligosaccharide--protein glycosyltransferase subunit 1 precursor [626], RPN1, drug:DMSO
  light to heavy ratio (L/H ratio) of acetylated peptide DTYIENEK(ac)LISGK (SEQ ID NO: 352): 0.00 log 2
Dynein light chain 1 cytoplasmic [36], gene DYNLL1, inhibitor:DMSO
  light to heavy ratio (L/H ratio) of acetylated peptide YNIEK(ac)DIAAHIK (SEQ ID NO: 553): 0.40 log 2
Dynein light chain 2 cytoplasmic [36], DYNLL2, drug:DMSO
  light to heavy ratio (L/H ratio) of acetylated peptide YNIEK(ac)DIAAYIK (SEQ ID NO: 331): 0.00 log 2
EHLLK(ac)YEYQPFAGK (SEQ ID NO: 482), Isoform 1 of WD repeat-containing protein 1 [95], WDR1
  L/H ratio of acetylated peptide: 0.47 log 2
EP300 [1558:1560], log 2 scale, drug vs DMSO
  L/H ratio of acetylated peptide TSK(ac)NK(ac)SSLSR (SEQ ID NO: 14): 1.00
Elongation factor 2 [638], EEF2, drug:DMSO
  light to heavy ratio (L/H ratio) of acetylated peptide YLAEK(ac)YEWDVAEAR (SEQ ID NO: 332): 0.00 log 2
Elongation factor G 2 mitochondrial precursor [265], gene GFM2, inhibitor:DMSO
  light to heavy ratio (L/H ratio) of acetylated peptide TFK(ac)GVVDVVMK (SEQ ID NO: 550): 0.39 log 2
Endoplasmin [410], HSP90B1, drug:DMSO
  light to heavy ratio (L/H ratio) of acetylated peptide KSDYIK(ac)LYVR (SEQ ID NO: 315): 1.00 log 2
Endoplasmin[ 142], HSP90B1, drug:DMSO
  light to heavy ratio (L/H ratio) of acetylated peptide EK(ac)[…] (SEQ ID NO: 314): 1.00 log 2
Endoplasmin[ 356], HSP90B1, drug:DMSO
  light to heavy ratio (L/H ratio) of acetylated peptide EVEEDEYK(ac)AFYK (SEQ ID NO: 261): 0.41 log 2
Eukaryotic initiation factor 4A-I [238], gene EIF4A1, inhibitor:DMSO
  light to heavy ratio (L/H ratio) of acetylated peptide K(ac)EELTLEGIR (SEQ ID NO: 510): −0.60 log 2
Eukaryotic translation initiation factor 2 subunit 3 [312], EIF2S3, drug:DMSO
  light to heavy ratio (L/H ratio) of acetylated peptide LMCK(ac)PIFSK (SEQ ID NO: 335): 0.00 log 2
Eukaryotic translation initiation factor 3 subunit A [68], gene EIF3A, inhibitor:DMSO
  light to heavy ratio (L/H ratio) of acetylated peptide SHLAK(ac)EGLYQYK (SEQ ID NO: 533): −0.41 log 2
FGIAAK(ac)[…] (SEQ ID NO: 479), Isoform 2 of Voltage-dependent anion-selective channel protein 2 [224], VDAC2
  L/H ratio of acetylated peptide: −0.40 log 2
FPHSAHQK(ac)YVR (SEQ ID NO: 253), Ribosomal protein L14 variant [71], RPL14
  light to heavy ratio (L/H ratio) of acetylated peptide, log 2 scale: −0.39
FVATGHGK(ac)YEK (SEQ ID NO: 487), Lymphocyte-specific protein 1 [327], LOC100133284, LSP1
  L/H ratio of acetylated peptide: 0.75 log 2
Flap endonuclease 1 [252], gene FEN1, inhibitor:DMSO
  light to heavy ratio (L/H ratio) of acetylated peptide AVDLIQK(ac)HK (SEQ ID NO: 546): 0.39 log 2
Fructose-bisphosphate aldolase A [108], gene ALDOA, drug:DMSO
  light to heavy ratio (L/H ratio), log 2 scale, acetylated peptide GGVVGIK(ac)VDK (SEQ ID NO: 774): 1.00
GANAB [48], log 2 scale, drug vs DMSO
  L/H ratio of acetylated peptide TCEESSFCK(ac)R (SEQ ID NO: 36): 0.00
GART [156], log 2 scale, drug vs DMSO
  L/H ratio of acetylated peptide ASGLAAGK(ac)GVIVAK (SEQ ID NO: 37): 0.00
GNB2L1 [175], log 2 scale, drug vs DMSO
  L/H ratio of acetylated peptide LVK(ac)VWNLANCK (SEQ ID NO: 39): 0.00
GNB2L1 [271], log 2 scale, drug vs DMSO
  L/H ratio of acetylated peptide IIVDELK(ac)QEVISTSSK (SEQ ID NO: 38): 0.00
GSK(ac)K(ac)AVTK (SEQ ID NO: 490), Histone H2B type 2-E [16:17], HIST2H2BE
  L/H ratio of acetylated peptide: 1.00 log 2
GTPBP4 [7], log 2 scale, drug vs DMSO
  L/H ratio of acetylated peptide (ac)AHYNFK(ac)K (SEQ ID NO: 40): 0.00
GVHPK(ac)FPEGGK (SEQ ID NO: 483), NADH-cytochrome b5 reductase 1 [124], CYB5R1
  L/H ratio of acetylated peptide: 0.48 log 2
Galectin-1 [13], gene LGALS1, inhibitor:DMSO
  light to heavy ratio (L/H ratio) of acetylated peptide (ac)[…](ac)PGECLR (SEQ ID NO: 575): 0.42 log 2
Glutamate dehydrogenase 1 mitochondrial [503], gene GLUD1, inhibitor:DMSO
  light to heavy ratio (L/H ratio) of acetylated peptide ISGASEK(ac)[…] (SEQ ID NO: 543): 0.39 log 2
Glyceraldehyde-3-phosphate dehydrogenase [139], gene GAPDH, inhibitor:DMSO
  light to heavy ratio (L/H ratio) of acetylated peptide […](ac)YDNSLK (SEQ ID NO: 620): 0.48 log 2
